Test systems include COLO 205 colon; SN12K1 renal; HCT-116 colon; OVCAR-4 ovarian; IGROV1 ovarian; SNB-78 CNS; SNB-75 CNS; UO-31 renal; K-562 leukemia; SK-OV-3 ovarian; SR leukemia.
Holding throughout (assay): NCI anticancer screen, dose series, 48 h

“And” between values parts separate entries of the source, which are not always exact repeats. Equal entries are not always repeated.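 Where inhibition never reached the appropriate level, the endpoint shown equals the highest concentration tested. Otherwise, values were interpolated linearly from a five-concentration, 48-hour dose response in 96-well plates. GI50 is the concentration that inhibits growth by half. TGI: concentration producing complete growth inhibition.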

`Oc1c(Br)cc2c(c1Br)-c1c(c(O)c3c4c1=NCCC=4C=N3)NCC2`: the TGI in the assay on COLO 205 colon was 11.7 µM; in the assay on SN12K1 renal it was 17.4 µM; in the assay on HCT-116 colon, 28.8 µM; in the assay on OVCAR-4 ovarian it was 23.5 µM; in the assay on IGROV1 ovarian, 27.4 µM; with SNB-78 CNS it was 13.4 µM. The TGI in the assay with SNB-75 CNS turned out to be 34.5 µM; with UO-31 renal it was 39.8 µM; in the assay with K-562 leukemia it was 40.9 µM; in the assay with SK-OV-3 ovarian, 54.8 µM.

For `N#C[S-].[La+3].c1ccc(-c2ccccn2)nc1.c1ccc(-c2ccccn2)nc1.c1ccc(-c2ccccn2)nc1`, the GI50 with COLO 205 colon is 45.5 µM; in the assay on OVCAR-4 ovarian it was 20.4 µM; in the assay on IGROV1 ovarian, 25.6 µM; with SNB-78 CNS, 59.4 µM; in the assay with SNB-75 CNS it was 25.9 µM; with UO-31 renal, 10.8 µM. The GI50 with SR leukemia is 34.2 µM; in the assay with SK-OV-3 ovarian, 31.7 µM. Further, the TGI in the assay with COLO 205 colon is greater than 100 µM; in the assay on OVCAR-4 ovarian, greater than 100 µM; in the assay on IGROV1 ovarian it was 60.5 µM; with SNB-78 CNS it was greater than 100 µM; with SNB-75 CNS it was greater than 100 µM; in the assay on UO-31 renal it was 55.9 µM. In addition, the values for the TGI in the assay with SR leukemia and in the assay with SK-OV-3 ovarian were greater than 100 µM and 99.6 µM, respectively.

Take `Brc1ccc2[nH]c3c(C4=NCCC4)nccc3c2c1`: the TGI in the assay with COLO 205 colon was greater than 59.6 µM; in the assay on SN12K1 renal it was greater than 25.7 µM; in the assay on HCT-116 colon, greater than 23.2 µM; with OVCAR-4 ovarian it was greater than 87.7 µM; in the assay with IGROV1 ovarian, greater than 78.7 µM; with SNB-78 CNS, greater than 100 µM. Moreover, the TGI in the assay on SNB-75 CNS was greater than 82 µM; with UO-31 renal it was 37 µM; in the assay with K-562 leukemia it was greater than 41.9 µM; in the assay on SK-OV-3 ovarian, greater than 100 µM.

For `Clc1cc(N/N=C(\c2ccccc2)c2ccccn2)ncn1`, the TGI is greater than 100 µM with HCT-116 colon; greater than 100 µM in the assay with OVCAR-4 ovarian; 89.9 µM in the assay with IGROV1 ovarian; greater than 100 µM in the assay on SNB-75 CNS; greater than 100 µM in the assay with K-562 leukemia; 3.08 µM with SR leukemia. Besides, the TGI with SK-OV-3 ovarian was 2 µM.

As for `Cc1c2cc[n+](Cc3ccc(I)cc3)cc2c(C)c2c1[nH]c1ccccc12`, the TGI was 6.16 µM with COLO 205 colon; 5.92 µM with SN12K1 renal; greater than 16.8 µM in the assay with HCT-116 colon; greater than 25 µM in the assay on IGROV1 ovarian; greater than 25 µM with SNB-78 CNS; 1.58 µM with SNB-75 CNS. The TGI was 15.8 µM with UO-31 renal, 10.7 µM in the assay on K-562 leukemia and greater than 13.5 µM in the assay on SK-OV-3 ovarian.

For `O=c1cc(-c2cccc(OC(F)(F)F)c2)[nH]c2ccc(N3CCCC3)cc12`, the TGI in the assay with COLO 205 colon is 0.0204 µM and 0.0319 µM; in the assay on HCT-116 colon it was 0.177 µM and 1.76 µM; in the assay with UO-31 renal, greater than 100 µM; in the assay on SR leukemia it was less than 0.0001 µM.

These data come from PubChem BioAssay (NCI).
